Results reported in patent US20080119561A1, “METHODS FOR PREVENTING OR DELAYING CATHETER- BASED RESVASCULARIZATION” (Pfizer Inc, priority 1998, published 2008).

Tests used:
[1] = system: cholesterol-fed male New Zealand White rabbits; conditions: 8 weeks, compared to progression controls; cited from earlier work
subjects and patients = conditions: over 400 subjects and patients; cited from earlier work
[2] = system: hypercholesterolemic patients; conditions: 2.5 to 80 mg/day, 6 weeks; cited from earlier work
[3] = system: patients with CAD and LDL-C≧130 mg/dL; conditions: atorvastatin 80 mg
Procedure: This is an 18-month, open-label, randomized, multicenter study in 341 patients with elevated LDL-C (≧130 mg/dL whether or not they are receiving lipid-lowering medication) who have had angiography. […] Patients must be Class I or II based on the Canadian Cardiovascular Society classification of angina severity, and must be able to complete 4 minutes of a Bruce protocol treadmill test, or a 20-W/min supine bicycle exercise test.
The study is conducted in patients with LDL-C≧130 mg/dL and TG≦400 mg/dL who have asymptomatic or mildly to moderately symptomatic CAD (with or without antianginal therapy) and in whom a recanalization procedure is recommended. “Usual care” represents a heterogeneous mix of therapies that may include calcium channel blocker use or lipid-lowering therapy (including diet, behavior modification or antihyperlipidemic medication). Patients who have undergone angiography, or are about to undergo angiography, will be considered for this study based on the results of the angiogram and other inclusion criteria. The study will be performed using a common protocol at all study sites. […]
All patients will be randomized to either Group 1 or Group 2 according to a randomization code. […] Usual care will be determined by the investigator or the patient's primary physician (or whoever typically decides the patient's follow-up care) as he or she sees fit. […]

CC(C)c1c(C(=O)Nc2ccccc2)c(-c2ccccc2)c(-c2ccc(F)cc2)n1CC[C@@H](O)C[C@@H](O)CC(=O)O [atorvastatin]
percentage of discernible thoracic aortic lesions [1]: reduced
reduction of extracellular matrix and smooth muscle cell area [1]: 63%
reduction of size of iliac-femoral lesions [1]: approximately 68%
most frequently occurring adverse events (subjects and patients): headache, infection (mostly colds), constipation, and back pain
HDL-C, apolipoprotein AI (apo AI) or Lp (a) [2]: No significant changes
apolipoprotein B (apo B) [2]: significantly reduced
drug-related serious adverse events [2]: no drug-related serious adverse events
reduction of TG levels [2]: up to 32%
total cholesterol [2]: significantly reduced
patients who encountered an adverse heart event ([3]; over 18 months, angioplasty group 21%): 13%
LDL cholesterol on treatment, average ([3]; from 140 mg/dL before treatment): 77 mg/dL
